Results from patent US8357694B2, “Substituted 5,6-dihydro-6-phenylbenzo[F]isoquinolin-2-amine compounds” (ArQule, Inc., priority 2008, dated 2013).
Where a name gives a salt, the structure may show the parent alone.

First: COCCN1CCN(CCc2ccc(Nc3ncc4c(n3)-c3ccccc3[C@H](c3ccc(Cl)c(Cl)c3)C4)cc2)CC1 (as salt: hydrochloride) [Example 115, (S)-6-(3,4-dichlorophenyl)-N-(4-(2-(4-(2-methoxyethyl)piperazin-1-yl)ethyl)phenyl)-5,6-dihydrobenzo[h]quinazolin-2-amine hydrochloride]
Second: CN1CCN(CCc2ccc(Nc3ncc4c(n3)-c3ccccc3[C@H](c3ccc(Cl)c(Cl)c3)C4)cc2)CC1 (as salt: hydrochloride) [Example 114, (S)-6-(3,4-dichlorophenyl)-N-(4-(2-(4-methylpiperazin-1-yl)ethyl)phenyl)-5,6-dihydrobenzo[h]quinazolin-2-amine hydrochloride]
The melting point of the first is higher: 248 to 250 °C for the first, 236 to 238 °C for the second.

First: Fc1ccccc1[C@@H]1Cc2cnc(Nc3cccc(CCN4CCNCC4)c3)nc2-c2ccccc21 (as salt: hydrochloride) [Example 160, (R)-6-(2-fluorophenyl)-N-(3-(2-(piperazin-1-yl)ethyl)phenyl)-5,6-dihydrobenzo[h]quinazolin-2-amine hydrochloride]
Second: CN1CCN(CCc2cccc(Nc3ncc4c(n3)-c3ccccc3[C@H](c3ccccc3F)C4)c2)CC1 (as salt: hydrochloride) [Example 161, (R)-6-(2-fluorophenyl)-N-(3-(2-(4-methylpiperazin-1-yl)ethyl)phenyl)-5,6-dihydrobenzo[h]quinazolin-2-amine hydrochloride]
The melting point of the first is higher: 193 to 199 °C for the first, 182 to 186 °C for the second.

Compared with Clc1ccc([C@H]2Cc3cnc(Nc4ccc(CCN5CCOCC5)cc4)nc3-c3ccccc32)cc1Cl [Example 51, (R)-6-(3,4-dichlorophenyl)-N-(4-(2-morpholinoethyl)phenyl)-5,6-dihydrobenzo[h]quinazolin-2-amine], Clc1ccc(C2Cc3cnc(Nc4ccc(CCN5CCOCC5)cc4)nc3-c3ccccc32)cc1Cl (centres unmarked) [Example 50, 6-(3,4-dichlorophenyl)-N-(4-(2-morpholinoethyl)phenyl)-5,6-dihydrobenzo[h]quinazolin-2-amine] is higher in melting point: 166 to 167 °C for the first, 180 to 181 °C for the second.

First: Clc1ccc(C2Cc3cnc(Nc4ccc(CCN5CCCCC5)cc4)nc3-c3ccccc32)cc1Cl (centres unmarked)
Second: Fc1ccc(C2Cc3cnc(Nc4ccc(CCN5CCCCC5)cc4)nc3-c3ccccc32)cc1F (centres unmarked) (as salt: hydrochloride) [Example 57, 6-(3,4-difluorophenyl)-N-(4-(2-(piperidin-1-yl)ethyl)phenyl)-5,6-dihydrobenzo[h]quinazolin-2-amine]
The melting point of the first is lower: 181 to 183 °C for the first, 214 to 218 °C for the second.

First: OCCc1ccccc1Nc1ncc2c(n1)-c1ccccc1[C@H](c1ccccc1F)C2 [Example 177, (R)-2-(2-(6-(2-fluorophenyl)-5,6-dihydrobenzo[h]quinazolin-2-ylamino)phenyl)ethanol]
Second: CCCCN(C)CCc1cccc(Nc2ncc3c(n2)-c2ccccc2[C@H](c2ccccc2F)C3)c1 (as salt: hydrochloride)
The melting point of the first is lower: 162 to 163 °C for the first, 163 to 167 °C for the second.

Compared with COCCNCCc1cc(Nc2ncc3c(n2)-c2ccccc2[C@H](c2ccccc2F)C3)ccc1F (as salt: hydrochloride) [Example 173, (R)—N-(4-fluoro-3-(2-(2-methoxyethylamino)ethyl)phenyl)-6-(2-fluorophenyl)-5,6-dihydrobenzo[h]quinazolin-2-amine hydrochloride salt], COCCNCCc1ccc(Nc2ncc3c(n2)-c2ccccc2[C@H](c2ccc(F)c(F)c2)C3)cc1 (as salt: hydrochloride) [Example 86, (S)-6-(3,4-difluorophenyl)-N-(4-(2-(2-methoxyethylamino)ethyl)phenyl)-5,6-dihydrobenzo[h]quinazolin-2-amine hydrochloride] is lower in melting point: 131 to 132 °C for the first, 85 to 87 °C for the second.

First: OCCc1ccc(Nc2ncc3c(n2)-c2ccccc2C(c2ccc(Cl)cc2)C3)cc1 (centres unmarked) [Example 22, 2-(4-(6-(4-chlorophenyl)-5,6-dihydrobenzo[h]quinazolin-2-ylamino)phenyl)ethanol]
Second: CCCCN(C)CCc1ccc(Nc2ncc3c(n2)-c2ccccc2[C@H](c2ccc(Cl)cc2)C3)cc1 (as salt: hydrochloride)
The melting point of the first is higher: 163 to 164 °C for the first, 75 to 77 °C for the second.

First: Brc1cccc(C2Cc3cnc(Nc4ccc(CCN5CCOCC5)cc4)nc3-c3ccccc32)c1 (centres unmarked) [Example 31, 6-(3-bromophenyl)-N-(4-(2-morpholinoethyl)phenyl)-5,6-dihydrobenzo[h]quinazolin-2-amine]
Second: Brc1cccc([C@@H]2Cc3cnc(Nc4ccc(CCN5CCCCC5)cc4)nc3-c3ccccc32)c1 (as salt: hydrochloride) [Example 78, (S)-6-(3-bromophenyl)-N-(4-(2-(piperidin-1-yl)ethyl)phenyl)-5,6-dihydrobenzo[h]quinazolin-2-amine hydrochloride]
The melting point of the first is lower: 86 to 88 °C for the first, 120 to 125 °C for the second.

Compared with Clc1ccc([C@@H]2Cc3cnc(Nc4ccc(CCN5CCCCC5)cc4)nc3-c3ccccc32)cc1 (as salt: hydrochloride), Clc1ccccc1[C@H]1Cc2cnc(Nc3ccc(CCN4CCCCC4)cc3)nc2-c2ccccc21 (as salt: hydrochloride) is lower in melting point: 261 to 263 °C for the first, 164 to 167 °C for the second.

First: CCCCN(C)CCc1ccc(Nc2ncc3c(n2)-c2ccccc2C(c2cccc(Br)c2)C3)cc1 (centres unmarked) [Example 26, 6-(3-bromophenyl)-N-(4-(2-(butyl(methyl)amino)ethyl)phenyl)-5,6-dihydrobenzo[h]quinazolin-2-amine]
Second: CCCCN(C)CCc1ccc(Nc2ncc3c(n2)-c2ccccc2[C@H](c2ccc(F)c(F)c2)C3)cc1 (as salt: hydrochloride) [Example 89, (S)—N-(4-(2-(butyl(methyl)amino)ethyl)phenyl)-6-(3,4-difluorophenyl)-5,6-dihydrobenzo[h]quinazolin-2-amine hydrochloride]
The melting point of the first is lower: 66 to 68 °C for the first, 130 to 132 °C for the second.

Compared with COCCNCCc1ccc(Nc2ncc3c(n2)-c2ccccc2[C@H](c2ccc(F)c(F)c2)C3)cc1 (as salt: HCl) [Example 82, (S)-6-(3,4-difluorophenyl)-N-(4-(2-(2-methoxyethylamino)ethyl)phenyl)-5,6-dihydrobenzo[h]quinazolin-2-amine], CN(C)CCc1ccc(Nc2ncc3c(n2)-c2ccccc2[C@H](c2ccc(F)c(F)c2)C3)cc1 (as salt: hydrochloride) [Example 87, (S)-6-(3,4-difluorophenyl)-N-(4-(2-(dimethylamino)ethyl)phenyl)-5,6-dihydrobenzo[h]quinazolin-2-amine hydrochloride] is lower in melting point: 221 to 225 °C for the first, 165 to 167 °C for the second.

Nc1ncc2c(n1)-c1ccccc1[C@@H](c1ccc(Cl)c(Cl)c1)C2 and Nc1ncc2c(n1)-c1ccccc1[C@H](c1ccc(Cl)c(Cl)c1)C2 fall in the same range of melting point: 159 to 160 °C for the first, 159 to 160 °C for the second.

First: Brc1cccc(C2Cc3cnc(Nc4ccc(CCNCCN5CCCC5)cc4)nc3-c3ccccc32)c1 (centres unmarked) [Example 47, 6-(3-bromophenyl)-N-(4-(2-(2-(pyrrolidin-1-yl)ethylamino)ethyl)phenyl)-5,6-dihydrobenzo[h]quinazolin-2-amine]
Second: CN1CCN(CCc2ccc(Nc3ncc4c(n3)-c3ccccc3C(c3cccc(Br)c3)C4)cc2)CC1 (centres unmarked) [Example 28, 6-(3-bromophenyl)-N-(4-(2-(4-methylpiperazin-1-yl)ethyl)phenyl)-5,6-dihydrobenzo[h]quinazolin-2-amine]
The melting point of the first is lower: 83 to 85 °C for the first, 100 to 102 °C for the second.

First: CN(CCc1ccc(Nc2ncc3c(n2)-c2ccccc2[C@H](c2cccc(Br)c2)C3)cc1)C1CCCCC1 (as salt: hydrochloride) [Example 79, (S)-6-(3-bromophenyl)-N-(4-(2-(cyclohexyl(methyl)amino)ethyl)phenyl)-5,6-dihydrobenzo[h]quinazolin-2-amine hydrochloride]
Second: CN(CCc1ccc(Nc2ncc3c(n2)-c2ccccc2C(c2cccc(Br)c2)C3)cc1)C1CCCCC1 (centres unmarked) [Example 29, 6-(3-bromophenyl)-N-(4-(2-(cyclohexyl(methyl)amino)ethyl)phenyl)-5,6-dihydrobenzo[h]quinazolin-2-amine]
The melting point of the first is lower: 167 to 172 °C for the first, 215 to 217 °C for the second.

Compared with COCCN1CCN(CCc2ccc(Nc3ncc4c(n3)-c3ccccc3[C@H](c3cccc(Br)c3)C4)cc2)CC1 (as salt: hydrochloride) [Example 77, (S)-6-(3-bromophenyl)-N-(4-(2-(4-(2-methoxyethyl)piperazin-1-yl)ethyl)phenyl)-5,6-dihydrobenzo[h]quinazolin-2-amine hydrochloride], COCCN(CCOC)CCc1ccc(Nc2ncc3c(n2)-c2ccccc2C(c2cccc(Br)c2)C3)cc1 (centres unmarked) [Example 42, N-(4-(2-(bis(2-methoxyethyl)amino)ethyl)phenyl)-6-(3-bromophenyl)-5,6-dihydrobenzo[h]quinazolin-2-amine] is lower in melting point: 263 to 265 °C for the first, 58 to 60 °C for the second.

First: COCCN1CCN(Cc2cccc(Nc3ncc4c(n3)-c3ccccc3[C@H](c3ccccc3F)C4)c2)CC1 (as salt: hydrochloride) [Example 179, (R)-6-(2-fluorophenyl)-N-(3-((4-(2-methoxyethyl)piperazin-1-yl)methyl)phenyl)-5,6-dihydrobenzo[h]quinazolin-2-amine hydrochloride]
Second: CCCCN(C)CCc1ccc(Nc2ncc3c(n2)-c2ccccc2[C@H](c2ccccc2F)C3)cc1 (as salt: hydrochloride) [Example 110, (R)—N-(4-(2-(butyl(methyl)amino)ethyl)phenyl)-6-(2-fluorophenyl)-5,6-dihydrobenzo[h]quinazolin-2-amine hydrochloride]
The melting point of the first is higher: 173 to 178 °C for the first, 78 to 81 °C for the second.

First: CN(CCc1ccccc1)CCc1cccc(Nc2ncc3c(n2)-c2ccccc2[C@H](c2ccc(Cl)c(Cl)c2)C3)c1 (as salt: hydrochloride)
Second: CN(C)CCCCNc1ncc2c(n1)-c1ccccc1C(c1cccc(Br)c1)C2 (centres unmarked) [Example 6, N^1-(6-(3-bromophenyl)-5,6-dihydrobenzo[h]quinazolin-2-yl)-N^4,N^4-dimethylbutane-1,4-diamine]
The melting point of the first is higher: 154 to 157 °C for the first, 115 to 117 °C for the second.

In the case of Nc1cc2c(cn1)CC(c1ccc(Cl)cc1Cl)c1ccccc1-2 (centres unmarked) [Example 156, 6-(2,4-dichlorophenyl)-5,6-dihydrobenzo[f]isoquinolin-2-amine], the melting point is reported as 189 to 193 °C.
